In ChEMBL document CHEMBL5584237, “Design, synthesis, biological evaluation, and in silico studies of novel pyridopyridine derivatives as anticancer candidates targeting FMS kinase” (Eur J Med Chem, 2024):
Each block holds one molecule with its values, some of them ahead of it.

Experiments:
[1] = Cytotoxicity against human WI-38 cells assessed as reduction in cell growth measured after 48 hrs by MTT assay; type: toxicity, cell-based
HepG2 = assay: cells; details: Homo sapiens, HepG2, 48 h
Description: Antiproliferative activity against human HepG2 cells assessed as cell growth inhibition measured after 48 hrs by MTT assay

Hep 3B2 [2] = assay: cells; details: Homo sapiens, Hep3B, 48 h
[3] = target: T1, Macrophage colony-stimulating factor 1 receptor (Homo sapiens, UniProt P07333); assay: Inhibition of FMS (unknown origin) using myelin basic protein as substrate measured after 40 mins in presence of [gamma-33P]-ATP by scintillation counting method
[4] = Cytotoxicity against human HS27 cells assessed as reduction in cell growth measured after 48 hrs by MTT assay; type: toxicity, cell-based
OVCAR-4 = assay: Antiproliferative activity against human OVCAR-4 cells assessed as cell growth inhibition; type: functional
DU-145 = assay: Antiproliferative activity against human DU-145 cells assessed as cell growth inhibition; type: functional
SK-MEL-28 = assay: Antiproliferative activity against human SK-MEL-28 cells assessed as cell growth inhibition; type: functional
A549 = assay: Antiproliferative activity against human A549 cells assessed as cell growth inhibition; type: functional
HT-29 = assay: Antiproliferative activity against human HT-29 cells assessed as cell growth inhibition; type: functional
Hep 3B2 [5] = assay: Antiproliferative activity against human Hep3B cells assessed as cell growth inhibition at 10 uM measured after 48 hrs by MTT assay relative to control; type: functional; details: read-out: GI
SR = assay: Antiproliferative activity against human SR cells assessed as cell growth inhibition; type: functional
MCF7 = assay: Antiproliferative activity against human MCF7 cells assessed as cell growth inhibition; type: functional
SN12C = assay: Antiproliferative activity against human SN12C cells assessed as cell growth inhibition; type: functional
PC-3 = assay: Antiproliferative activity against human PC-3 cells assessed as cell growth inhibition; type: functional
786-0 = assay: Antiproliferative activity against human 786-0 cells assessed as cell growth inhibition; type: functional
COLO 205 = assay: Antiproliferative activity against human COLO 205 cells assessed as cell growth inhibition; type: functional
SNB-75 = assay: Antiproliferative activity against human SNB-75 cells assessed as cell growth inhibition; type: functional
CCRF-CEM = assay: Antiproliferative activity against human CCRF-CEM cells assessed as cell growth inhibition; type: functional
MOLT-4 = assay: Antiproliferative activity against human MOLT-4 cells assessed as cell growth inhibition; type: functional
NCI-H460 = assay: Antiproliferative activity against human NCI-H460 cells assessed as cell growth inhibition; type: functional
Malme-3M = assay: Antiproliferative activity against human Malme-3M cells assessed as cell growth inhibition; type: functional
OVCAR-3 = assay: Antiproliferative activity against human OVCAR-3 cells assessed as cell growth inhibition; type: functional
M14 = assay: Antiproliferative activity against human M14 cells assessed as cell growth inhibition; type: functional
HCT-15 = assay: Antiproliferative activity against human HCT-15 cells assessed as cell growth inhibition; type: functional
K562 = assay: Antiproliferative activity against human K562 cells assessed as cell growth inhibition; type: functional
CAKI-1 = assay: Antiproliferative activity against human CAKI-1 cells assessed as cell growth inhibition; type: functional
RXF 393 = assay: Antiproliferative activity against human RXF 393 cells assessed as cell growth inhibition; type: functional
MDA-MB-231 = assay: Antiproliferative activity against human MDA-MB-231 cells assessed as cell growth inhibition; type: functional
SW-620 = assay: Antiproliferative activity against human SW-620 cells assessed as cell growth inhibition; type: functional
[6] = target: Voltage-gated inwardly rectifying potassium channel KCNH2 (Homo sapiens, UniProt Q12809); assay: Inhibition of fluorescence tracer red binding to human ERG measured after 3 hrs by fluorescence polarization assay
[7] = target: T1, Macrophage colony-stimulating factor 1 receptor; assay: Inhibition of NanoLuc-fused FMS (unknown origin) transfected in HEK293 cells by NanoBRET assay; type: cell-based
HCT-116 = assay: Antiproliferative activity against human HCT-116 cells assessed as cell growth inhibition; type: functional
MDA-MB-468 = assay: Antiproliferative activity against human MDA-MB-468 cells assessed as cell growth inhibition; type: functional
Hs-578T = assay: Antiproliferative activity against human Hs-578T cells assessed as cell growth inhibition; type: functional
LOX IMVI = assay: Antiproliferative activity against human LOX IMVI cells assessed as cell growth inhibition; type: functional
MDA-MB-435 = assay: Antiproliferative activity against human MDA-MB-435 cells assessed as cell growth inhibition; type: functional
SF-539 = assay: Antiproliferative activity against human SF-539 cells assessed as cell growth inhibition; type: functional
SF-295 = assay: Antiproliferative activity against human SF-295 cells assessed as cell growth inhibition; type: functional
BMDM = assay: Inhibition of CSF-1-induced C57BL6 mouse BMDM cell growth preincubated for 1 hr followed by CSF-1 addition and measured after 5 hrs by alamar blue assay

T1 sequence (P07333 whole entry): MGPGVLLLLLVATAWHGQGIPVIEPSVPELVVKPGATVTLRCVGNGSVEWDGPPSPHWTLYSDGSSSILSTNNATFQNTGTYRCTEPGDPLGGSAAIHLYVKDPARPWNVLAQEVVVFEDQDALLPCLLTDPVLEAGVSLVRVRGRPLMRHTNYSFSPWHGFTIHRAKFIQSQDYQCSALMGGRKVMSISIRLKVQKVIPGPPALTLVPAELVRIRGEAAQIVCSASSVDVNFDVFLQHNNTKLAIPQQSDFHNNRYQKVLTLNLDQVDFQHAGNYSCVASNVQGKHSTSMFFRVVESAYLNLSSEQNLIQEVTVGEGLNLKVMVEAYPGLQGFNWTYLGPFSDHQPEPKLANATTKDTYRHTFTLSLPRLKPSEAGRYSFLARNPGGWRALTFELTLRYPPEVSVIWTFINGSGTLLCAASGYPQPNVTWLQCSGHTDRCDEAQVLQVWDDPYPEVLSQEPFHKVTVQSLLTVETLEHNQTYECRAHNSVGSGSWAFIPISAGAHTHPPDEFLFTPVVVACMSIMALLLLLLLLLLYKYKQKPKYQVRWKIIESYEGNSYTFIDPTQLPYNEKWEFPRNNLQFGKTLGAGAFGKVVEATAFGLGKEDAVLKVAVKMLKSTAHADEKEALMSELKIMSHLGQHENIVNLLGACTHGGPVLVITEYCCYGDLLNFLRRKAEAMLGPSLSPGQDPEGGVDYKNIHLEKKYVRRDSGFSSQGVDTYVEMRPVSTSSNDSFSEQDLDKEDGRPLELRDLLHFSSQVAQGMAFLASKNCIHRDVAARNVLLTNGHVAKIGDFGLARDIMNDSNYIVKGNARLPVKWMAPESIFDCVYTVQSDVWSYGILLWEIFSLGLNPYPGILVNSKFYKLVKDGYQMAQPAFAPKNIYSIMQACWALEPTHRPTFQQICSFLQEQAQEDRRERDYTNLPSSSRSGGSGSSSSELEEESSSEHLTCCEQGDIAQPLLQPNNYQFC
Sequence of Voltage-gated inwardly rectifying potassium channel KCNH2 (Q12809 whole entry, the tested form may be a part): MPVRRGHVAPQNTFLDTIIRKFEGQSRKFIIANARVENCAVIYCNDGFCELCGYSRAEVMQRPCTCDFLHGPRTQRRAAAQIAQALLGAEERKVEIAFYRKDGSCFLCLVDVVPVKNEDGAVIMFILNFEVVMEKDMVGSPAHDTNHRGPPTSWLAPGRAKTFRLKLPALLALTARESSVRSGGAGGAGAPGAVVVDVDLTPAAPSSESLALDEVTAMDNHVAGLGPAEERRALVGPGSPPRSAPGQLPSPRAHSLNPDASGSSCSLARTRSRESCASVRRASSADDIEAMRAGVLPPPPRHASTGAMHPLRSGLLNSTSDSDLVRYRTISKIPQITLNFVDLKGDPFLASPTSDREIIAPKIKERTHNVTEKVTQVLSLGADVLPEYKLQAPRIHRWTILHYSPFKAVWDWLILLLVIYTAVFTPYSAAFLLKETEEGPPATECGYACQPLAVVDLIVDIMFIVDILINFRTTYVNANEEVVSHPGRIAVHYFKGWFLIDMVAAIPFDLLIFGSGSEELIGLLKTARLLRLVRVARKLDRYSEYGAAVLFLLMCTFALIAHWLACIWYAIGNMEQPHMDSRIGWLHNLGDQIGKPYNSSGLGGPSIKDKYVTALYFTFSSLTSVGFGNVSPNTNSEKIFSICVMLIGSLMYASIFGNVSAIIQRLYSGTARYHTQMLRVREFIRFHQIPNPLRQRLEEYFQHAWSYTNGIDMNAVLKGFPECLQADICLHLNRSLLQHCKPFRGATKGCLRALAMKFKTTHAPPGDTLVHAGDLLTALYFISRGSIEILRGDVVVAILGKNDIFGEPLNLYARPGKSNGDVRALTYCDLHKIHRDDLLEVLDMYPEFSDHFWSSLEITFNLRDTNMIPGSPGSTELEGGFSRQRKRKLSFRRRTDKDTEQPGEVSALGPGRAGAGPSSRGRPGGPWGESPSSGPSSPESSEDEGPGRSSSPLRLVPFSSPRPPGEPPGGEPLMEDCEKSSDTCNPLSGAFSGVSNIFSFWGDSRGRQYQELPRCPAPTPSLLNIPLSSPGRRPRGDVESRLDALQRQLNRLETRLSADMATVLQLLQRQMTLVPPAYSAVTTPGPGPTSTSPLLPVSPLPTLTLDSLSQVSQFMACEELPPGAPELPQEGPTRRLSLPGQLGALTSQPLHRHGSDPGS

IC50 (HepG2): 0.87 µM | IC50 (Hep 3B2 [2]): 0.81 µM | IC50 ([3]; read-out: IC50): 0.788 µM
Compound: C=CC(=O)N1CCN(c2ccc(NC(=O)Nc3ccc(-c4cc(C(=O)NC(C)C)c5ncccc5n4)cc3)cc2C(F)(F)F)CC1
IC50 at 48 h [1]: 15.8 µM | IC50 at 48 h [4]: 8.1 µM

IC50 (HepG2): 1.27 µM | IC50 (Hep 3B2 [2]): 1.89 µM | IC50 ([3]; read-out: IC50): 0.134 µM
Compound: CNC(=O)c1cc(-c2ccc(NC(=O)Nc3ccc(N4CCOCC4)c(C(F)(F)F)c3)cc2)nc2cccnc12
IC50 at 48 h [1]: > 20 µM | IC50 at 48 h [4]: 11.6 µM

GI50 (OVCAR-4): 3.16 µM | GI50 (DU-145): 3.16 µM | GI50 (SK-MEL-28): 2.51 µM | GI50 (A549): 3.16 µM | GI50 (HT-29): 2 µM | GI50 (MCF7): 2.51 µM | GI50 (PC-3): 2 µM | GI50 (786-0): 3.16 µM | GI50 (COLO 205): 2 µM | GI50 (CCRF-CEM): 2 µM | GI50 (MOLT-4): 3.16 µM | GI50 (NCI-H460): 2.51 µM | GI50 (OVCAR-3): 3.16 µM | GI50 (HCT-15): 2.51 µM | GI50 (K562): 3.16 µM | GI50 (MDA-MB-231): 1.26 µM | GI50 (SW-620): 2.51 µM
Compound: CNC(=O)c1cc(Oc2ccc(NC(=O)Nc3ccc(Cl)c(C(F)(F)F)c3)cc2)ccn1 [SORAFENIB]
inhibition of growth at 10 µM (Hep 3B2 [5]): 75% | GI50 (SR): 3.16 µM | TGI (MCF7): 7.94 µM | GI50 (SN12C): 2.51 µM | GI50 (SNB-75): 3.16 µM | TGI (MOLT-4): 100 µM | GI50 (Malme-3M): 2 µM | GI50 (M14): 2 µM | GI50 (CAKI-1): 3.16 µM | GI50 (RXF 393): 3.16 µM | IC50 at 48 h [4]: 8.3 µM

IC50 ([3]; read-out: IC50): 0.901 µM
Compound: CC(C)NC(=O)c1cc(-c2ccc(NC(=O)Nc3ccc(N4CCOCC4)c(C(F)(F)F)c3)cc2)nc2cccnc12

IC50 (HepG2): 0.92 µM | IC50 (Hep 3B2 [2]): 0.85 µM | IC50 ([3]; read-out: IC50): 0.852 µM
Compound: CC(C)NC(=O)c1cc(-c2ccc(NC(=O)Nc3ccc(N4CCNCC4)c(C(F)(F)F)c3)cc2)nc2cccnc12
IC50 at 48 h [1]: 18.6 µM | IC50 at 48 h [4]: 9.1 µM

Compound: CC(C)NC(=O)c1cc(-c2ccc(NC(=O)Nc3ccc(F)c(C(F)(F)F)c3)cc2)nc2cccnc12
inhibition of growth at 10 µM (Hep 3B2 [5]): 84.8%

IC50 ([3]; read-out: IC50): 0.743 µM
Compound: CNC(=O)c1cc(-c2ccc(NC(=O)Nc3ccc(N4CCNCC4)c(C(F)(F)F)c3)cc2)nc2cccnc12

IC50 (HepG2): 0.8 µM | IC50 (Hep 3B2 [2]): 1.76 µM | IC50 ([3]; read-out: IC50): 0.797 µM | IC50 ([3]; read-out: pIC50 (converted)): 0.813 µM
Compound: CC(C)NC(=O)c1cc(-c2ccc(NC(=O)Nc3ccc(N4CCN(C)CC4)c(C(F)(F)F)c3)cc2)nc2cccnc12
IC50 at 48 h [1]: 18.3 µM | IC50 at 48 h [4]: 8 µM

IC50 [7]: 0.563 µM
Compound: CNC(=O)c1cc(-c2ccc(NC(=O)Nc3ccc(N4CCN(C)CC4)c(C(F)(F)F)c3)cc2)nc2cccnc12
IC50 [6]: 95.9 µM

GI50 (SK-MEL-28): 0.32 µM | GI50 (A549): 0.47 µM | GI50 (HT-29): 0.53 µM | GI50 (MCF7): 0.29 µM | GI50 (MDA-MB-435): 0.27 µM | GI50 (786-0): 0.3 µM | GI50 (CCRF-CEM): 0.46 µM | GI50 (MOLT-4): 0.69 µM | GI50 (NCI-H460): 0.66 µM | GI50 (HCT-15): 0.33 µM | GI50 (K562): 0.66 µM | IC50 [7]: 1.35 µM | GI50 (SW-620): 0.31 µM
Compound: CCN1CCN(c2ccc(NC(=O)Nc3ccc(-c4cc(C(=O)NC)c5ncccc5n4)cc3)cc2C(F)(F)F)CC1
TGI (OVCAR-4): 5.63 µM | TGI (DU-145): 4.9 µM | TGI (HCT-116): 4.83 µM | IC50 at 48 h [1]: 16.7 µM | TGI (SK-MEL-28): 0.58 µM | TGI (A549): 13 µM | TGI (HT-29): 2.11 µM | GI50 (SR): 0.67 µM | TGI (SR): 18 µM | TGI (MDA-MB-468): 5.03 µM | TGI (Hs-578T): 6.88 µM | TGI (MCF7): 0.61 µM | GI50 (LOX IMVI): 0.67 µM | TGI (LOX IMVI): 2.66 µM | TGI (MDA-MB-435): 0.56 µM | TGI (SN12C): 5.3 µM | TGI (PC-3): 6.03 µM | TGI (786-0): 0.58 µM | IC50 [6]: 83.4 µM | TGI (COLO 205): 14.2 µM | GI50 (SNB-75): 0.84 µM | TGI (SNB-75): 3.82 µM | TGI (CCRF-CEM): 1.27 µM | GI50 (SF-539): 2.3 µM | TGI (SF-539): 4.57 µM | TGI (SF-295): 4.47 µM | IC50 (BMDM): 0.167 µM | TGI (MOLT-4): 18 µM | TGI (NCI-H460): 2.93 µM | GI50 (Malme-3M): 0.29 µM | TGI (Malme-3M): 0.53 µM | TGI (OVCAR-3): 5.06 µM | GI50 (M14): 0.4 µM | TGI (M14): 1.05 µM | TGI (HCT-15): 0.7 µM | TGI (K562): 18 µM | TGI (CAKI-1): 5.6 µM | GI50 (RXF 393): 0.5 µM | TGI (RXF 393): 1.66 µM | TGI (MDA-MB-231): 5.25 µM | IC50 at 48 h [4]: 8.8 µM | TGI (SW-620): 0.62 µM

IC50 ([3]; read-out: IC50): 0.196 µM
Compound: C=CC(=O)N1CCN(c2ccc(NC(=O)Nc3ccc(-c4cc(C(=O)NC)c5ncccc5n4)cc3)cc2C(F)(F)F)CC1
